Tests used:
Drosophila [1] = assay: Life span of Drosophila fed various concentrations of PBA; assay type: in vivo, Drosophila melanogaster
Drosophila [2] = assay: Life span of Drosophila fed PBA early or late in life; assay type: in vivo, Drosophila melanogaster
Drosophila [3] = assay: Food intake (food dye in alimentary tract), caloric restriction test; assay type: in vivo, Drosophila melanogaster; settings: overnight feeding, ten flies per group
Procedure: (§1) Caloric restriction increases life span in rodents, worms, and yeast (Guarente, L & Kenyon, C. Nature 408, 255-262 (2000)). Although PBA is odorless and tasteless to human, flies may dislike the smell or taste of the drug, which may cause caloric restriction. To test the issue of possible caloric restriction effects, the intake of food was measured by adding food dye to both the control and PBA containing media. After an overnight feeding, the alimentary tracts of ten flies from each group were dissected out and examined for color. No difference in the alimentary tract of these flies was discernible. Further, the weight and size of the flies were measured after ten days of feeding with or without PBA (Table 1). […] Therefore, the extension of life span observed in Drosophila fed PBA is most likely not due to caloric restriction.

Drosophila [4] = assay: Weight and size of flies fed PBA; assay type: in vivo, Drosophila melanogaster
Procedure: (§2) Table 1 is a comparison of weight, size and reproductive ability of Drosophila raised on food with and without 10 mM PBA for 10 days at 25° C., as described in Example 1, infra.
as §1

Drosophila [5] = assay: Reproductive activity of Drosophila fed PBA (eggs, adult progeny, progeny weight and size); assay type: in vivo, Drosophila melanogaster
Procedure: as §2
Reproductive signaling in C. elegans and Drosophila also contribute to extend life span (Guarente, L & Kenyon, C. Nature 408, 255-262 (2000)). PBA treatment may slow down reproduction of flies and thus results in the extension of life span. The role of PBA on the reproductive activity of female Drosophila was examined by counting the number of eggs layed, the percentage of eggs yielding adult progeny, and the weight and size of the progeny.

Drosophila [6] = assay: Locomotor activity, negative geotaxis in counter current distribution apparatus; assay type: in vivo, Drosophila melanogaster; settings: old flies, FIG. 3A
Procedure: Life extension without maintaining physical or mental vigor is undesirable. To examine whether the life span increase by PBA is associated with extended maintenance of vigor, the locomotor activity was measured for young and old flies raised with and without PBA treatment. A known assay of negative geotaxis in a counter current distribution apparatus was measured the locomotor activity of the flies (Benzer, S. Proc. Natl. Acad. Sci. U.S.A. 58, 1112-1119 (1967); FIG. 3A).

Drosophila [7] = assay: Resistance to paraquat induced stress (survival); assay type: in vivo, Drosophila melanogaster; settings: sucrose solution containing 20 mM paraquat, FIG. 3C
Procedure: (§3) Stress to an animal can be achieved by starvation or an increase production of free radicals. The effective removal of free radicals or the increase of antioxidant levels reduce stress to the animal and are important in slowing down the ageing process. The failure to repair oxidative damages and the elevation of free radial is known to shorten the life span of animal. Therefore, resistance to stress was measured in PBA fed flies by measuring if they have an increase resistance to the free radical generator, paraquat, and to dry starvation. PBA treated and control flies drank sucrose solution containing 20 mM paraquat were tested for duration of life span (e.g. survival) (FIG. 3C). […] PBA treated and control flies were also put into empty vials to measure their survival on dry starvation (FIG. 3B).

Drosophila [8] = assay: Survival on dry starvation; assay type: in vivo, Drosophila melanogaster; settings: empty vials, FIG. 3B
Procedure: as §3

histones H3 and H4 = assay: Histone acetylation level by western blot in flies fed PBA; assay type: in vivo, Drosophila melanogaster; settings: flies fed PBA versus untreated, FIG. 4A and 4B
Text: PBA, an inhibitor of histone deacetylase, is known to enhance acetylation in the tails of histones H3 and H4, which causes the tails to be released from the DNA (Lea et al. Induction of Histone Acetylation and Growth Regulation in Erythroleukemia Cells by 4-phenylbutyrate and Structural Analogs Anticancer Research 19:1971-1976 (1999)). The acetylation of histones changes the binding affinity between histones and DNA, and leads genes to recruit transcription factors and undergo transcription. Using western blots stained with specific antibodies, the level of histone acetylation was measured in Drosophila, with and without PBA treatment. Batches of 100 flies (males+females) were used to prepare histones (Alfageme, C. R., Zweidler, A., Mahowald, A. & Cohen, L. H. Histones of Drosophila embryos J. Biol. Chem. 12, 3729-3736 (1974)). The homogenates of whole flies were centrifuged at 2,500×g for 10 min in a medium containing 0.05 M glycine, 10 mM Tris potassium maleate, 5 mM MgCl2, 10 mM mercaptoethanol, pH 7.3. Isolated nuclei were used to extract histones by HCl treatment. 10 μg samples of histone protein were loaded on a 16.5% polyacrylamide gel for electrophoresis, then transferred to a PVDF membrane (Immobilin-P transfer membrane, Millipore, Bedford, Mass.), followed by hybridization with antibodies to acetylated and nonacetylated H3 and H4 (Upstate Biotechnology, Lake Placid, N.Y.).

Drosophila EST clones = assay: Differential gene expression on high density membrane arrays; assay type: in vivo, Drosophila melanogaster; settings: 10 mM PBA, 10 days, 29° C.
Procedure: To investigate the differential pattern of gene activity resulting from PBA treatment, high density membrane arrays containing about 27,000 Drosophila EST clones (Research Genetics, Huntsville, Tenn.) were used. Messenger RNA was prepared from either 10 day old flies that had been treated with 10 mM PBA at 29° C. from emergence onward. A similar preparation was made from untreated flies. These RNA preparations were used as probes on the membrane arrays.
The Smart PCR cDNA synthesis kit (Clontech, Palo Alto, Calif.) was used to synthesize probes for hybridization. Total RNA was prepared from flies (males+females) fed for 10 days at 29° C. with medium containing 10 mM PBA or plain medium. After first strand synthesis of cDNAs by MMLV reverse transcriptase (M-MLV reverse transcriptase, Boehringer Mannheim, Indianapolis, Ind.), the cDNA was amplified by polymerase chain reaction (PCR). The reaction consisted of 95° C. for 1 minute, then 24 cycles of 95° C. for 15 seconds, 65° C. for 30 seconds, and 68° C. for 6 minutes. Probes were prepared by a random primed DNA labeling method with p^32. Filters containing 27,000 Drosophila EST clones (Research Genetics, Huntsville, Tenn.) were prehybridized for 4 hours, then probes were added to hybridize for 16 hours at 58° C. in a buffer containing 1 M NaCl, 0.05M Tris (pH 8.0), 5 mM EDTA, 1% SDS, and 10% Dextran Sulfate. […]

transcription levels = assay: Verification of changes in transcription levels (RT-PCR / Northern); settings: 10 mM PBA, 10 days, 29° C.
Procedure: In another embodiment of the invention RT-PCR was be used to verify the changes in transcription levels seen by the difference in hybridization on the membrane arrays. Newly emerged adult flies (males+females) were fed food containing 10 mM PBA, or plain food for 10 days at 29° C., then total RNA was extracted and used to synthesize cDNA. For each PCR reaction, 50 ng of cDNA was used. Primers were designed from the sequence of each gene to detect fragments of between 300 and 600 base pairs (Table 4). PCR reactions were performed with 30 cycles of 94° C. for 1 minute, 55° C. for 1 minute, and 72° C. for 1 minute.
Biochem. Biophys. 301, 34-40 (1993)). Elongation factor1-alpha plays a critical role in maintaining the level of protein synthesis, which normally declines with age (Webster, G. C. & Webster, S. L. Specific disappearance of translatable messenger RNA for elongation factor one in aging Drosophila melanogaster. Mech. Ageing Devel. 24, 335-342). […] Heat shock proteins enhance resistance to stress and extend life span (Tatar, M., Khazaeli, A. A. & Curtsinger, J. W. Chaperoning extended life. Nature 390, 30 (1997); Lithgow, G. J. Temperature, stress response and aging. Rev. Clin. Gerontol. 6, 119-127 (1996)).

histone deacetylase = settings: Lea & Randolph 1998; cited from earlier work
[9] = w^118 flies, medium containing 10 mM PBA, 29° C. (FIG. 1A)
[10] = 10 mM PBA, 10 days, 25° C., n = 10
[11] = 10 mM PBA, 10 days, 25° C., n = 40
[12] = progeny of flies raised on 10 mM PBA, n = 10
[13] = progeny of flies raised on 10 mM PBA, n = 40

SMILES: O=C([O-])CCCc1ccccc1.[Na+] [PBA, 4-phenylbutyric acid, sodium salt]
- life span compared to same strain fed on fly medium (Drosophila [1]; Canton-S strain, 10 mM PBA (FIG. 1C)): extended life span
- effect on longevity (Drosophila [1]; w^118 flies, lower concentrations of PBA (0.1, 1, 2.5, 5 mM)): no effect on longevity
- extension in maximum life span (Drosophila [1]; [9]): 60%
- extension in median life span (Drosophila [1]; [9]): about 35%
- life span compared with untreated flies (Drosophila [2]; PBA from emergence to 12 days, then plain medium): increased life span compared with untreated flies
- life span compared with untreated flies (Drosophila [2]; plain medium for first 12 days, then PBA for remainder of life): increased life span compared with untreated flies
- treatment initiated at later age versus young age (Drosophila [2]; virgin female flies (not in males), FIG. 2A): even more effective than the same duration of treatment at young age
- intake of food (colour of alimentary tract) (Drosophila [3]): No difference
- weight of 5 flies, parent females (Drosophila [4]; [10]): 5.1 ± 0.2 mg
- weight of 5 flies, parent males (Drosophila [4]; [10]): 3.3 ± 0.4 mg
- size of fly, parent female (Drosophila [4]; [11]): 5.5 ± 0.1 mm
- size of fly, parent male (Drosophila [4]; [11]): 4.6 ± 0.1 mm
- weight and size of the flies versus control (Drosophila [4]; after ten days of feeding with or without PBA): no differences were observed
- egg laying (Drosophila [5]; 3 males + 3 females a vial for 16 hrs, n = 20 vials, 10 mM PBA, 10 days, 25° C.): 70 ± 16
- effect on reproductive activity of female flies (Drosophila [5]; all measurements of Table 1): no detrimental effect
- % of eggs yielding adults (Drosophila [5]; n = 20 vials, 10 mM PBA, 10 days, 25° C.): 70 ± 16%
- weight of 5 flies, progeny females (Drosophila [5]; [12]): 5.2 ± 0.2 mg
- weight of 5 flies, progeny males (Drosophila [5]; [12]): 3.5 ± 0.3 mg
- size of fly, progeny female (Drosophila [5]; [13]): 5.5 ± 0.1 mm
- size of fly, progeny male (Drosophila [5]; [13]): 4.6 ± 0.2 mm
- climbing ability (locomotor activity) (Drosophila [6]): enhanced the climbing ability of old flies significantly
- survival under paraquat induced stress (Drosophila [7]): survived much longer
- resistance to dry starvation (Drosophila [8]): enhanced the resistance to starvation
- acetylation of histones H3 and H4 (histones H3 and H4): increase of acetylated H3 and H4
- number of genes strongly induced (Drosophila EST clones): One hundred
- number of genes suppressed (Drosophila EST clones; disappearance of a visible spot): 48
- Fold-change, cytochrome P450-4d1 (CG3656) (transcription levels; induced): 7.2 fold
- Fold-change, daughterless (CG5102) (transcription levels; induced): 8.0 fold
- Fold-change, dnaJ like2 (CG3061) (transcription levels; induced): 2.9 fold
- Fold-change, epididymal secretory protein (CG7291) (transcription levels; induced): 7.5 fold
- Fold-change, glutathione S transferase (CG10045) (transcription levels; induced): 4.6 fold
- Fold-change, hsc70 (CG4264) (transcription levels; induced): 4.5 fold
- Fold-change, hsp60 (CG12101) (transcription levels; induced): 6.7 fold
- Fold-change, imaginal disc growth factor1 (CG4472) (transcription levels; induced): 5.3 fold
- Fold-change, inebriated (CG15444) (transcription levels; induced): 26.8 fold
- Fold-change, mitochondrial phosphate carrier protein (CG4994) (transcription levels; induced): 5.1 fold
- Fold-change, superoxide dismutase (CG8905) (transcription levels; induced): 51.9 fold
- Fold-change, translational elongation factor1 α (CG8280) (transcription levels; induced): 4.1 fold
- Fold-change, transportin (CG7398) (transcription levels; induced): 8.0 fold
- Fold-Change, NADH:ubiquinone reductase 75kD subunit precursor (CG2286) (transcription levels; repressed): 25.3 fold
- Fold-Change, calreticulin (GH25160) (transcription levels; repressed): 26.5 fold
- Fold-Change, cyclin-dependent kinase9 (GH21935) (transcription levels; repressed): 2.7 fold
- Fold-Change, cytochrome c oxidase (FBgn0013674) (transcription levels; repressed): 6.6 fold
- Fold-Change, cytochrome c oxidase subunit Vlb (CG14235) (transcription levels; repressed): 2.2 fold
- Fold-Change, dnaJ like1 (CG10578) (transcription levels; repressed): 13.2 fold
- Fold-Change, fatty acid synthetase (CG3523) (transcription levels; repressed): 2.4 fold
- Fold-Change, glyceraldehyde 3 phosphate dehydrogenase1 (CG12055) (transcription levels; repressed): 3.7 fold
- Fold-Change, hexokinase (CG3001) (transcription levels; repressed): 5.0 fold
- Fold-Change, osa (GH03026) (transcription levels; repressed): 5.0 fold
- Fold-Change, peptidyl glycine α hydroxylating monooxygenase (CG3832) (transcription levels; repressed): 1.4 fold
- Fold-Change, peroxisomal farnesylated protein (GH03076) (transcription levels; repressed): 1.8 fold
- Fold-Change, porin (GH08586) (transcription levels; repressed): 1.4 fold
- activity on histone deacetylase (histone deacetylase): inhibits the activity of histone deacetylase
